Reference: patent publication EP3381907A1, “SYMMETRICAL 2-AMINOPHENYL-BENZAZOLYL-5-ACETATE COMPOUNDS AND THEIR USE AS ANTI-HEPARANASE” (Leadiant Biosciences SA, priority 2017, dated 2018)

Tests used:
heparanase = molecular target: T1, heparanase (Homo sapiens, UniProt Q9Y251); test: AGA*IA assay: colorimetric fondaparinux cleavage assay for heparanase inhibition (WST-1); type: biochemical; conditions: 2.5 nM heparanase, 100 µM fondaparinux, pH 5.0, 3 h at 37°C; class symbols
T1 sequence (Q9Y251 158-543 limits assumed): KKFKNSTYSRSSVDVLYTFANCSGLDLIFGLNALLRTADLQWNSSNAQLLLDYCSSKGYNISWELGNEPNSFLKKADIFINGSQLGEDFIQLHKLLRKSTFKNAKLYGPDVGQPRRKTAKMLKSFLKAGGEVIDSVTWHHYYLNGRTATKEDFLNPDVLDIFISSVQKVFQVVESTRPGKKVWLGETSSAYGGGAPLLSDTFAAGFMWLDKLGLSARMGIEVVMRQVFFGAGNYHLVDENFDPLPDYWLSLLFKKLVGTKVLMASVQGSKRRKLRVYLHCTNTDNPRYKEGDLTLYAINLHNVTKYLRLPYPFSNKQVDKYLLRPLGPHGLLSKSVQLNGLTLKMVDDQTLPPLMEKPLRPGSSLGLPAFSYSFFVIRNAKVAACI
T1 sequence (Q9Y251 36-109 limits assumed): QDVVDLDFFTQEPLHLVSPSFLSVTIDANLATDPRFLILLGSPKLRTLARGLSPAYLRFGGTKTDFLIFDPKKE
Procedure: All compounds were tested in a simple, accurate and robust microplate assay based on the cleavage of the synthetic heparin fragment, the pentasaccharide Fondaparinux (AGA*IA). This assay was originally developed by Hammond and coworkers [Hammond E, Li CP, Ferro V. Development of a colorimetric assay for heparanase activity suitable for kinetic analysis and inhibitor screening. Anal. Biochem. 396(1), 112-116 (2010)], where Fondaparinux corresponds to the methyl glycoside of the antithrombin III (ATIII)-activating pentasaccharide sequence of heparin. Fondaparinux is cleaved by heparanase to generate a reducing disaccharide, which can be quantitatively measured via a colorimetric or a fluorescence assay, the last by the fluorescent sensor polymer-H [Schiemann S, Lühn S, Alban S. Development of both colorimetric and fluorescence heparinase activity assays using fondaparinux as substrate. Anal. Biochem. 427(1), 82-89 (2012)].
The assay measures the appearance of the disaccharide product of heparanase-catalyzed fondaparinux cleavage colorimetrically using the tetrazolium salt WST-1. Assay was essentially performed as described with minor modifications. Briefly, NUNC ELISA 96-well plates were pre-treated with a solution of 4% BSA (bovin serum albumin) in phosphate-buffered saline containing 0.05% Tween 20 (PBST), for 2 h at 37°C, then washed three times with PBST, dried by tapping on paper towel and stored at -20°C. Before use, once again, the plates were washed with PBST.
Assay was carried out with 100 µl/well of assay solution containing 40 mM sodium acetate buffer (pH 5.0), 100 µM fondaparinux, 2.5 nM heparanase and serial dilutions of test compounds (tested in triplicate). Plates were sealed with adhesive tape and incubated, in the dark, for 3 h at 37°C, followed by development with 1.69 mM of the tetrazolium salt WST-1 solution in 0.1 M NaOH, for 1 h at 60°C. Then, the absorbance at 560 nm was measured through a microplate reader (Victor 3, Perkin Elmer).
Finally, the measurements were corrected by subtracting both the reagent background and the inner absorbance value of test compound.

[1] = system: HT1080 (human fibrosarcoma); test: SRB Cell Cytotoxicity Assay, HT1080; type: cell-based; conditions: HT-1080, HT1080, 72h treatment, read-out: Concentration (µM) of test compounds at which the cell growth is inhibited by 50 %. HT1080
Text: (§1) SRB Cell Cytotoxicity Assay is an assay based upon the quantitative staining of cellular proteins by sulforhodamine B (SRB). This assay can be used for high-throughput drug screening (Vichai & Kirkitara, Nature Protocol. 2006, 1, 112). Sulforhodamine B is an anionic aminoxanthene dye that forms an electrostatic complex with the basic amino acid residues of proteins under moderately acid conditions, which provides a sensitive linear response.
(§2) To assess a putative antiproliferative activity of the selected compounds, HT1080 (human fibrosarcoma), U87MG (human glioblastoma astrocytoma) and U2OS (human osteosarcoma) cell lines were treated for 72h, in triplicate, with increasing concentrations of heparanase inhibitors. Inhibition of cell proliferation was then measured by the classical colorimetric SRB Cell Cytotoxicity assay. Absorbance was measured by spectrophotometer at a wavelength of 510 nm and cell proliferation was determined as percent with respect to control cells (cells treated with the vehicle alone). EC50 values were then determined by GraphPad Prism.

[2] = system: U2OS (human osteosarcoma); test: SRB Cell Cytotoxicity Assay, U2OS; type: cell-based; conditions: 72h treatment, read-out: Concentration (µM) of test compounds at which the cell growth is inhibited by 50 %. U2OS
Text: as §1, §2

[3] = system: U87MG (human glioblastoma astrocytoma); test: SRB Cell Cytotoxicity Assay, U87MG; type: cell-based; conditions: U-87 MG, 72h treatment, read-out: Concentration (µM) of test compounds at which the cell growth is inhibited by 50 %. U87MG
Text: as §1, §2

SMILES	IC50 (heparanase)	EC50 [1]	EC50 [2]	EC50 [3]
O=C(O)Cc1ccc2[nH]c(-c3ccc(NC(=O)Nc4ccc(-c5nc6cc(CC(=O)O)ccc6[nH]5)cc4F)c(F)c3)nc2c1 [Compound 4, 2,2'-(((Carbonylbis(azanediyl))bis(3-fluoro-4,1-phenylene))bis(1H-benzo[d]imidazole-2,5-diyl))diacetic acid]	500 to 990 nM	–	–	–
O=C(O)CNC(=O)Cc1ccc2[nH]c(-c3ccc(NC(=O)Nc4ccc(-c5nc6cc(CC(=O)NCC(=O)O)ccc6[nH]5)cc4F)c(F)c3)nc2c1 [Compound 7, 2,2'-((2,2'-(((carbonylbis(azanediyl))bis(3-fluoro-4,1-phenylene))bis(1H-benzo[d]imidazole-2,5-diyl))bis(acetyl))bis(azanediyl))diacetic acid]	1000 to 20000 nM	–	–	–
O=C(Cc1ccc2[nH]c(-c3ccc(NC(=O)Nc4ccc(-c5nc6cc(CC(=O)N[C@@H](Cc7ccccc7)C(=O)O)ccc6[nH]5)cc4F)c(F)c3)nc2c1)N[C@@H](Cc1ccccc1)C(=O)O [Compound 8, (2S,2'S)-2,2'-((2,2'-(((Carbonylbis(azanediyl))bis(3-fluoro-4,1-phenylene))bis(1H-benzo[d]imidazole-2,5-diyl))bis(acetyl))bis(azanediyl))bis(3-phenylpropanoic acid)]	500 to 990 nM	–	–	–
O=C(Cc1ccc2[nH]c(-c3ccc(NC(=O)Nc4ccc(-c5nc6cc(CC(=O)NCB(O)O)ccc6[nH]5)cc4F)c(F)c3)nc2c1)NCB(O)O [Compound 9, (((2,2'-(((Carbonylbis(azanediyl))bis(3-fluoro-4,1-phenylene))bis(1H-benzo[d]imidazole-2,5-diyl))bis(acetyl))bis(azanediyl))bis(methylene))diboronic acid]	1000 to 20000 nM	–	–	–
O=C(O)Cc1ccc2[nH]c(-c3ccc(NC(=S)Nc4ccc(-c5nc6cc(CC(=O)O)ccc6[nH]5)cc4F)c(F)c3)nc2c1 [Compound 12, 2,2'-(((Thiocarbonylbis(azanediyl))bis(3-fluoro-4,1-phenylene))bis(1H-benzo[d]imidazole-2,5-diyl))diacetic acid]	500 to 990 nM	–	–	–
O=C(O)Cc1ccc2oc(-c3ccc(NC(=O)Nc4ccc(-c5nc6cc(CC(=O)O)ccc6o5)cc4)cc3)nc2c1 [Compound 19, 2,2'-(((Carbonylbis(azanediyl))bis(4,1-phenylene))bis(benzo[d]oxazole-2,5-diyl))diacetic acid]	1000 to 20000 nM	> 10 µM	> 10 µM	> 10 µM
O=C(Cc1ccc2oc(-c3ccc(NC(=O)Nc4ccc(-c5nc6cc(CC(=O)N[C@@H](Cc7ccccc7)C(=O)O)ccc6o5)cc4F)c(F)c3)nc2c1)N[C@@H](Cc1ccccc1)C(=O)O [Compound 26, (2S,2'S)-2,2'-((2,2'-(((Carbonylbis(azanediyl))bis(3-fluoro-4,1-phenylene))bis(benzo[d]oxazole-2,5-diyl))bis(acetyl))bis(azanediyl))bis(3-phenylpropanoic acid)]	500 to 990 nM	> 10 µM	> 10 µM	> 10 µM
CC(C)CCNC(=O)Cc1ccc2oc(-c3ccc(NC(=O)Nc4ccc(-c5nc6cc(CC(=O)NCCC(C)C)ccc6o5)cc4F)c(F)c3)nc2c1 [Compound 28, 2,2'-(((Carbonylbis(azanediyl))bis(3-fluoro-4,1-phenylene))bis(benzo[d]oxazole-2,5-diyl))bis(N-isopentylacetamide)]	1000 to 20000 nM	–	–	–
CC(C)C[C@H](NC(=O)Cc1ccc2oc(-c3ccc(NC(=O)Nc4ccc(-c5nc6cc(CC(=O)N[C@@H](CC(C)C)B(O)O)ccc6o5)cc4F)c(F)c3)nc2c1)B(O)O [Compound 31, (1R,1'R)-(((2,2'-(((Carbonylbis(azanediyl))bis(3-fluoro-4,1-phenylene))bis(benzo[d]oxazole-2,5-diyl))bis(acetyl))bis(azanediyl))bis(3-methylbutane-1,1-diyl))diboronic acid]	1000 to 20000 nM	–	–	–
O=C(O)Cc1ccc2oc(-c3ccc(NC(=S)Nc4ccc(-c5nc6cc(CC(=O)O)ccc6o5)cc4)cc3)nc2c1 [Compound 33, 2,2'-(((thiocarbonylbis(azanediyl))bis(4,1-phenylene))bis(benzo[d]oxazole-2,5-diyl))diacetic acid]	1000 to 20000 nM	–	–	–
O=C(O)Cc1ccc2oc(-c3ccc(NC(=S)Nc4ccc(-c5nc6cc(CC(=O)O)ccc6o5)cc4F)c(F)c3)nc2c1 [Compound 36, 2,2'-(((Thiocarbonylbis(azanediyl))bis(3-fluoro-4,1-phenylene))bis(benzo[d]oxazole-2,5-diyl))diacetic acid]	1000 to 20000 nM	–	–	–
O=C(O)CNC(=O)Cc1ccc2oc(-c3ccc(NC(=S)Nc4ccc(-c5nc6cc(CC(=O)NCC(=O)O)ccc6o5)cc4F)c(F)c3)nc2c1 [Compound 38, 2,2'-((2,2'-(((Thiocarbonylbis(azanediyl))bis(3-fluoro-4,1-phenylene))bis(benzo[d]oxazole-2,5-diyl))bis(acetyl))bis(azanediyl))diacetic acid]	50 to 490 nM	> 10 µM	> 10 µM	> 10 µM
N=C(Nc1ccc(-c2nc3cc(CC(=O)O)ccc3o2)cc1)Nc1ccc(-c2nc3cc(CC(=O)O)ccc3o2)cc1 [Compound 40, 2,2'-((((Iminomethylene)bis(azanediyl))bis(4,1-phenylene))bis(benzo[d]oxazole-2,5-diyl))diacetic acid]	1000 to 20000 nM	–	–	–
